Experimental data: patent publication US20240300932A1, “N-PHENYLIMINE DERIVATIVE AND PREPARATION METHOD AND USE THEREOF” (Guizhou University, priority 2023, published 2024)

System: broad-leaf weeds
Experiment: Post-emergence herbicidal activity test, broad-leaf weeds as a group
Format: in vivo
Conditions: 10 a.i.g/mu
Procedure: The weeds were cultivated in a 180 mm×140 mm plastic nutrient pot by a pot-culture method, placed in an enamel tray, and the plastic nutrient pots were filled with surface soil (⅘ of a depth) collected from a farmland and air-dried and sieved, and a soil humidity was controlled at 20% in the initial stage. Weed seeds with plump and uniform grains were selected, soaked in warm water at 25° C. for 6 h, and germinated in a biochemical incubator (dark) at 28° C. The freshly exposed weed seeds were evenly placed on the soil surface, and then covered with 0.5 cm to 1 cm of soil according to the size of the seeds. The weeds are cultivated in a controlled sunlight greenhouse at 20° C. to 30° C., under natural light, and a relative humidity of 57% to 72%. […]
2 weeks after sowing, the test plants were treated at the 2- to 3-leaf stage: the compounds of the present disclosure for testing were dissolved in acetone separately, and added with Tween 80, an emulsifiable oil of 1.5 liters/ha methyl oleate was added as a synergist, and an obtained mixture was diluted with certain water to a certain concentration solution. […] After spraying, the weeds were cultivated in the greenhouse for 3 weeks, and the experimental effects on the weeds were counted. […]

C#CCN1C(=O)COc2cc(F)c(N3C(=O)C4=C(CCCC4)C3=O)cc21 [flumioxazin]
control effect against broad-leaf weeds: 100%
